Where no end group is shown, it is not given here.

This note sets out measurements from patent US20240010680A1, “PEPTIDE DISINFECTANT FOR PREVENTING CORONAVIRUSES” (Xiamen University, priority 2021, published 2024).

In this assay the target is hACE2 (Homo sapiens, UniProt Q9BYF1). In words: Biacore T200 molecular binding (affinity analysis) of peptides on a CM5-hACE2 chip. The text has this:
Embodiment 1: Testing a Binding Capacity Between Peptide1 & Peptide2 and Derivatives Thereof and hACE2 Based on a Biacore Molecular Binding System (e.g., GE Biacore T200)
Apparatus: GE Biacore T200.
Materials and reagents: Series S Sensor Chip CM5 (GE Life100530), hACE2 purified protein, Peptide1 & Peptide2 and their derivatives (See Table 1), Amine Coupling Kit (GELife100050, Phosphate-buffered saline (PBS), glycine-hydrochloric acid buffer solution (pH 2.5)).
(1) Preparing a Capture Surface and a Binding Experiment
Materials: 1-(3-Dimethylaminopropyl)-3-ethylcarbodiimide hydrochloride (EDC), N-Hydroxysuccinimide (NHS), ethanolamine (an amine coupling kit), PBS, hACE2, Series S Sensor Chip CM5.
Specific Steps: • a. The GE Biacore T200 is started, the Series S Sensor Chip CM5 is embedded into the GE Biacore T200, the PBS is degassed to obtain a degassed PBS, and the degassed PBS is used throughout the experiment; • b. The NHS, the EDC, the ethanolamine, and the hACE2 (1 mg/mL) are placed on a feeding plate of the GE Biacore T200 according to volumes indicated by the GE Biacore T200 using Eppendorf (EP) tubes in sufficient quantities; • c. A sample is injected at a flow rate of 5 μL/min, an activation of the Series S Sensor Chip CM5, amine coupling of the hACE2, and saturating an activated carboxyl group that is uncoupled with the hACE2 using the ethanolamine are sequentially performed to obtain an RUs value of the hACE2, and the RUs value is 14826.0; • d. A mobile solution (the degassed PBS) is closed, a command window is closed, and a report is served to obtain a CM5-hACE2 chip;
(2) Affinity analysis of peptides with hACE from Table 1
Materials: the PBS, the CM5-hACE2 chip, the peptides in the Table 1, and the glycine-hydrochloric acid buffer solution (pH 2.5).
Specific Steps: • a. Preparing different dilutions as samples for testing: the peptides in Table 1 to be tested at a concentration of 3 mmol/L (mM) are dissolved and sequentially diluted into different dilutions of 100 μmol/L (μM), 60 μM, 30 μM, 10 μM, 3 μM, 1 μM, 0.3 μM, and 0 using the PBS to obtain the samples. Each of the different dilutions is ensured to have a volume of no less than 400 μL and separately packaged on EP tubes. The samples are placed on a test plate of the GE Biacore T200, and the test plate is stuck in a test slot; • b. […]
Background: SPR reads the build-up and loss of mass on a sensor chip optically.

Chain of hACE2 (Q9BYF1 18-805): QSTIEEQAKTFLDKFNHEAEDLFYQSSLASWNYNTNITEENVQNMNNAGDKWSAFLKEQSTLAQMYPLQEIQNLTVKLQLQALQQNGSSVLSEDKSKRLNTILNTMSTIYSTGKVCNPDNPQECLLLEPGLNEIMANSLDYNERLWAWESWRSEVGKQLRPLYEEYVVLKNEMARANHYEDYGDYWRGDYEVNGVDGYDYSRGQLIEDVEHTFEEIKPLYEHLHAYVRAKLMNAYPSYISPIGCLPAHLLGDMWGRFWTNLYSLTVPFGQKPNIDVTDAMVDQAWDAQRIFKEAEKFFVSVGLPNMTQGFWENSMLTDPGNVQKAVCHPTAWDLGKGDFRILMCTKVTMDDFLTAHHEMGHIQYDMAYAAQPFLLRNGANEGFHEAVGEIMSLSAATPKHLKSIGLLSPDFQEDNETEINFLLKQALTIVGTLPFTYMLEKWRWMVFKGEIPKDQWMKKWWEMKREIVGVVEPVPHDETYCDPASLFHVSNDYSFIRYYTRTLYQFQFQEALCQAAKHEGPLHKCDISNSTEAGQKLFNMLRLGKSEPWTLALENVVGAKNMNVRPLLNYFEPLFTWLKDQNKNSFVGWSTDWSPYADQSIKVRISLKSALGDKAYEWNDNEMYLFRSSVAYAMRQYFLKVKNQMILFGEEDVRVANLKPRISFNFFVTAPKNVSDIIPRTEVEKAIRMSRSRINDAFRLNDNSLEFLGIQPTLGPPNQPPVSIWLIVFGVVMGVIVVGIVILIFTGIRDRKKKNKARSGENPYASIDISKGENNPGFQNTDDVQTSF

For YKYRYL [Peptide1, YKYRYL], binding was characterised by a dissociation constant (Kd) of 50.6 µM. As for YRYKYL [Peptide11, YRYKYL], the Kd was found to be 60.7 µM. Next, YSYINK [Peptide2, YSYINK]: 95 µM; YTYINK [Peptide22, YTYINK]: 58.4 µM.

As usually defined, the Kd is the equilibrium constant for the complex coming apart.
